Among the test systems are U251 CNS; NCI-H226 lung; IGROV1 ovarian; RPMI-8226 leukemia; M14 melanoma; ACHN renal; SK-OV-3 ovarian; UO-31 renal; BT-549 breast; OVCAR-3 ovarian.
Assay in all cases: growth of human tumour cells (NCI), 48 h

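1) Cells in 96-well plates. 2) Compound, 48 h, 5 concentrations. 3) Linear interpolation between surrounding doses. 4) Unreached endpoint = highest concentration. The concentration for 50% growth inhibition is given as GI50. TGI: total growth inhibition.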

Take `COc1ncnc2c(-c3ccccc3)cn(COCc3ccccc3)c12`: the GI50 is 4.06 µM in the assay on U251 CNS; 2.03 µM in the assay with NCI-H226 lung; 7.16 µM with IGROV1 ovarian; 2.03 µM in the assay on RPMI-8226 leukemia; 2.66 µM with M14 melanoma; 3.82 µM with ACHN renal. For the same compound, the GI50 is 7.69 µM in the assay with SK-OV-3 ovarian, 2.58 µM in the assay with UO-31 renal, 2.57 µM with BT-549 breast and 5.09 µM with OVCAR-3 ovarian. The TGI in the assay with U251 CNS was over 100 µM; in the assay with NCI-H226 lung it was 8.12 µM; in the assay with IGROV1 ovarian it was over 100 µM; in the assay on RPMI-8226 leukemia, 13 µM; in the assay with M14 melanoma, 7.07 µM; in the assay with ACHN renal, over 100 µM. Moreover, the TGI in the assay with SK-OV-3 ovarian is over 100 µM; in the assay on UO-31 renal it was 12 µM; in the assay on BT-549 breast it was 7.6 µM; in the assay on OVCAR-3 ovarian it was 20.1 µM.
As to `C=C(CN1C(=O)CN(C)C1=O)c1ccc(C(=O)Nc2ccccc2N)cc1`, the GI50 in the assay with NCI-H226 lung was 23.6 µM; in the assay on IGROV1 ovarian, 12.3 µM; with RPMI-8226 leukemia it was 2.32 µM; in the assay on M14 melanoma, 29.8 µM; in the assay on ACHN renal, 20.9 µM; with SK-OV-3 ovarian it was 1.64 µM. For the same compound, the GI50 is 11.8 µM in the assay on UO-31 renal, 61.8 µM with BT-549 breast and 24.8 µM in the assay with OVCAR-3 ovarian. The TGI is over 100 µM with NCI-H226 lung; over 100 µM with IGROV1 ovarian; 14.8 µM in the assay on RPMI-8226 leukemia; over 100 µM with M14 melanoma; over 100 µM with ACHN renal; 9.96 µM in the assay on SK-OV-3 ovarian. Besides, the TGI with UO-31 renal, with BT-549 breast and in the assay with OVCAR-3 ovarian was over 100 µM each time.
As for `C=CCOc1cc(NC(=S)c2ccoc2C)ccc1OC`, the TGI in the assay with U251 CNS, with NCI-H226 lung, in the assay on IGROV1 ovarian, with RPMI-8226 leukemia, with M14 melanoma and in the assay with ACHN renal was over 100 µM each time. The TGI with SK-OV-3 ovarian, with UO-31 renal, in the assay on BT-549 breast and with OVCAR-3 ovarian was over 100 µM each time.
Consider `CN(CCO)CC[C@H](CSc1ccccc1)Nc1ccc(S(=O)(=O)NC(=O)c2ccc(N3CCC([C@@H](O)c4ccccc4-c4ccc(Cl)cc4)CC3)cc2)cc1S(=O)(=O)C(F)(F)F`, for which the GI50 is 2.82 µM with U251 CNS; 2.5 µM with NCI-H226 lung; 2.6 µM with IGROV1 ovarian; 0.16 µM in the assay on RPMI-8226 leukemia; 3.51 µM with M14 melanoma; over 27.8 µM in the assay on ACHN renal. The GI50 in the assay with SK-OV-3 ovarian was 4.98 µM; with UO-31 renal, over 100 µM; in the assay with BT-549 breast, 2.69 µM; with OVCAR-3 ovarian, 3.71 µM. Further, the TGI is 8.88 µM in the assay with U251 CNS; 7.46 µM with NCI-H226 lung; 6.63 µM in the assay on IGROV1 ovarian; 2.94 µM in the assay on RPMI-8226 leukemia; 20.2 µM with M14 melanoma; over 100 µM in the assay with ACHN renal. Moreover, the TGI is 20.7 µM in the assay with SK-OV-3 ovarian, over 100 µM with UO-31 renal, 11 µM in the assay with BT-549 breast and 13 µM with OVCAR-3 ovarian.
Turning to `O=C1C(Cl)=C(Nc2cccc(Cl)c2)C(=O)N1Cc1ccc(Cl)cc1`, the GI50 with U251 CNS was 0.312 µM; with NCI-H226 lung, 0.119 µM; with IGROV1 ovarian, 1.19 µM; in the assay on RPMI-8226 leukemia it was 0.266 µM; with M14 melanoma, 2.11 µM; with ACHN renal, 1.39 µM. Moreover, the GI50 is 6.34 µM in the assay with SK-OV-3 ovarian, 1.74 µM in the assay on UO-31 renal, 0.338 µM with BT-549 breast and 0.784 µM with OVCAR-3 ovarian. For the same compound, the TGI is 14.2 µM in the assay on U251 CNS; 1.37 µM in the assay with NCI-H226 lung; over 39.3 µM with IGROV1 ovarian; 3.37 µM in the assay with RPMI-8226 leukemia; 9.94 µM in the assay on M14 melanoma; 15 µM in the assay with ACHN renal. Further, the TGI in the assay with SK-OV-3 ovarian came out at 24.6 µM; with UO-31 renal, 24.5 µM; in the assay with BT-549 breast, 2.84 µM; with OVCAR-3 ovarian it was 6.24 µM.
On to `C[C@H](NC(=O)[C@@H](C)N)[C@H](Oc1ccc2c(cnn2-c2ccc(F)cc2)c1)c1ccc2c(c1)OCCO2`, for which the GI50 in the assay on U251 CNS is 2.4 µM; in the assay with NCI-H226 lung, 2.64 µM; in the assay on IGROV1 ovarian, 1.84 µM; in the assay with RPMI-8226 leukemia, 1.17 µM; in the assay with M14 melanoma, 1.68 µM; in the assay on ACHN renal, 1.83 µM. Besides, the GI50 is 0.208 µM in the assay with SK-OV-3 ovarian, 1.39 µM with UO-31 renal, 1.82 µM in the assay on BT-549 breast and 2.37 µM with OVCAR-3 ovarian. Moreover, the TGI in the assay on U251 CNS worked out at 5.56 µM; in the assay on NCI-H226 lung it was 15.8 µM; with IGROV1 ovarian, 5.07 µM; with RPMI-8226 leukemia it was 3.75 µM; in the assay on M14 melanoma it was 3.3 µM; in the assay with ACHN renal it was 4.9 µM. Moreover, the TGI was determined as 13.5 µM in the assay on SK-OV-3 ovarian, 3.27 µM in the assay on UO-31 renal, 15 µM in the assay with BT-549 breast and 6.98 µM in the assay with OVCAR-3 ovarian.
As for `COc1ccc(/C=C/C(=O)c2cc(OC)c(OC)c(OC)c2)cc1OCc1cn(Cc2ccc(F)cc2)nn1`, the GI50 is 2.94 µM with U251 CNS; 2.26 µM in the assay on NCI-H226 lung; 7.4 µM in the assay with IGROV1 ovarian; 1.7 µM with RPMI-8226 leukemia; 4.07 µM in the assay on M14 melanoma; 3.53 µM in the assay on ACHN renal. The GI50 with UO-31 renal is 4 µM; with BT-549 breast, 3.45 µM; in the assay with OVCAR-3 ovarian, 3.41 µM. Besides, the TGI was 19.4 µM in the assay on U251 CNS; 7.67 µM with NCI-H226 lung; over 100 µM with IGROV1 ovarian; 6.3 µM in the assay on RPMI-8226 leukemia; over 100 µM in the assay on M14 melanoma; 16.7 µM in the assay with ACHN renal. Also, the TGI in the assay with UO-31 renal was 79.8 µM; with BT-549 breast it was 27.7 µM; with OVCAR-3 ovarian, over 100 µM.
Take `C=C(C)[C@@H]1CC[C@]2(C)CC[C@]3(C)[C@H](CC[C@@H]4[C@@]5(C)CC[C@H](O)C(C)(C)[C@@H]5CC[C@]43C)[C@@H]12`: the TGI in the assay on U251 CNS was 41 µM; with NCI-H226 lung, over 86.5 µM; with IGROV1 ovarian, over 100 µM; with RPMI-8226 leukemia, over 100 µM; in the assay on M14 melanoma, over 100 µM; with ACHN renal, over 100 µM. The TGI is over 72.1 µM with UO-31 renal, 29.3 µM in the assay with BT-549 breast and over 100 µM in the assay with OVCAR-3 ovarian.
As for `CN1CCC2(CC1)ONC1=NCCN12`, the GI50 with U251 CNS is 29.4 µM; in the assay with NCI-H226 lung it was 21.8 µM; in the assay with M14 melanoma it was 47.9 µM; with ACHN renal, 23.7 µM; in the assay with SK-OV-3 ovarian, 42 µM; in the assay with UO-31 renal, 45.3 µM. Moreover, the GI50 in the assay with BT-549 breast is 53.1 µM. In addition, the TGI was over 100 µM in the assay with U251 CNS; 63.5 µM in the assay with NCI-H226 lung; over 100 µM with M14 melanoma; 74.5 µM with ACHN renal; over 100 µM with SK-OV-3 ovarian; over 100 µM with UO-31 renal. The compound also gave a TGI with BT-549 breast of over 100 µM.

Values taken from PubChem BioAssay (NCI).
